Data as given in patent publication US6890951B2, “Treatment of addiction and addiction-related behavior” (Brookhaven Science Associates LLC, priority 1998, dated 2005).
“Also recorded” adds a separate entry of the source. Where two headings read alike, the source gives them in different places.

Legend:
[1] = tested on: male Sprague-Dawley rats; assay type: in vivo
From the text: In all rodent studies, male Sprague-Dawley rats were used (200-225 g, Taconic farms, Germantown, N.Y.). Animals were allowed to acclimate to the animal housing facility for at least 5 days prior to beginning the experiments. […] The conditioning procedure for the acquisition phase consisted of 12 sessions carried out consecutively over 12 days.
The animals in each group were randomly assigned to a 2×2 factorial design with one factor being the pairing chamber and the other factor being the order of conditioning. The animals that received either saline or cocaine were injected and confined to the appropriate compartment for 30 minutes.
[…] The amount of time spent in each chamber was recorded using an automated infrared beam electronically coupled to a timer.
In this example the procedure outlined in Section 2 of Materials and Methods was followed.

[2] = tested on: male Sprague-Dawley rats; test: Food-induced conditioned place preference; assay type: in vivo
From the text: In order to test food-induced CPP in rodents, four groups of rats were allowed access to food ad libitum during the entire 12 session of CPP procedure. The 12 session CPP procedure was exactly the same as the procedure used in the cocaine induced CPP studies except the appetitive substance was food rather than cocaine. […] The animals in all four groups were habituated to Froot Loops, a fruit-flavored breakfast cereal that is very appealing to laboratory rats, in the appropriate chamber in the test room during four habituating sessions. […] The amount of time spent in the paired and unpaired chambers was recorded using an automated device.
In this example the procedure outlined in Section 3 of Materials and Methods was followed.

[3] = tested on: freely moving rats; test: Cocaine-induced stereotypy after a sensitizing regimen of cocaine; assay type: in vivo
Method: The phenomenon of sensitization is observed with virtually all drugs of addiction. Sensitization is believed to play a role in the etiology of addiction.
Animals received 15 mg/kg i.p. of cocaine and stereotypy was determined in standard locomotor cages. For 6 consecutive days, animals received 15 mg/kg i.p. of cocaine once a day in their home cages. Eight days later, animals were rechallenged with 15 mg/kg i.p. of cocaine and stereotypy was determined. A five point rating scale was used to assess stereotypy and the rater was blind to the treatment received by each animal.

[4] = tested on: extracellular DA in the NACC; test: Microdialysis: ethanol-induced increases in NACC DA; assay type: in vivo, rats; conditions: Rattus norvegicus
[5] = tested on: NAc DA; test: Microdialysis: cocaine/heroin (speedball) induced increases in NAc DA; assay type: in vivo, rats
Method: In vivo microdialysis studies were performed using adult male Sprague-Dawley rats (Taconic Farms) as detailed previously (Morgan and Dewey, 1998). Cocaine, a dopamine reuptake inhibitor, (n=6-8) was administered (i.p.) at a dose of 20 mg/kg while heroin, an indirect dopamine releaser, (n=6-8) was administered (i.p.) at a dose of 0.5 mg/kg. In studies designed to investigate the synergistic effects of a cocaine/heroin combination (n=6-8), both drugs were administered at the identical dose used in the single drug studies. Alone cocaine produced a marked elevation in extracellular DA of approximately 380% above baseline values, 60 minutes following administration. DA returned to baseline within 120 minutes. In contrast, heroin increased NAc DA by only 70%, 60 minutes following administration, returning to baseline within 140 minutes. However, when combined, the two drugs produced an increase in NAc DA of approximately 1000%, 180 minutes following administration that had not returned to baseline values by 200 minutes after reaching peak values (FIG. 9).

[6] = tested on: male F344 rats; conditions: cited from earlier work
[7] = in vivo; cited from earlier work
[8] = tested on: rhesus monkeys; conditions: cited from earlier work
[9] = tested on: Sprague-Dawley rats; test: Gross locomotor activity during microdialysis (infrared motion sensor); conditions: GVG, during the 2.5 hour pretreatment interval
[10] = acquisition, 75 mg/kg GVG 2.5 hours prior to cocaine 20 mg/kg
[11] = acquisition, 75 mg/kg GVG/Saline pairing
[12] = acquisition, 112 mg/kg GVG 2.5 hours prior to cocaine 20 mg/kg
[13] = acquisition, 112 mg/kg GVG/Saline pairing
[14] = acquisition, 150 mg/kg GVG 2.5 hours prior to cocaine 20 mg/kg
[15] = acquisition, 150 mg/kg GVG/Saline pairing
[16] = acquisition, 300 mg/kg GVG 2.5 hours prior to cocaine 20 mg/kg
[17] = acquisition, 300 mg/kg GVG/Saline pairing
[18] = expression, Saline/Cocaine pairings, GVG 75 mg/kg on test day
[19] = expression, Saline/Cocaine pairings, GVG 112 mg/kg on test day
[20] = expression, Saline/Cocaine pairings, GVG 150 mg/kg on test day
[21] = expression, Saline/Cocaine pairings, GVG 300 mg/kg on test day
[22] = expression, Saline/Saline pairings, GVG 112 mg/kg on test day
[23] = expression, Saline/Saline pairings, GVG 150 mg/kg on test day
[24] = expression, Saline/Saline pairings, GVG 300 mg/kg on test day

gross locomotor activity [9]: did not alter gross locomotor activity
SMILES: C=CC(N)CCC(=O)O (racemic) [GVG, 4-amino-5-hexanoic acid]
acquisition and expression of cocaine-induced CPP ([1]; GVG 75 mg/kg, cocaine 20 mg/kg): not
Time spent in chambers, Paired [1, 10]: 9.1 ± 1.1 min
Time spent in chambers, Unpaired [1, 10]: 5.9 ± 1.2 min
Time spent in chambers, Paired [1, 11]: 7.3 ± 0.5 min
Time spent in chambers, Unpaired [1, 11]: 7.7 ± 0.6 min
Time spent in chambers, Paired [1, 12]: 8.2 ± 0.5 min
Time spent in chambers, Unpaired [1, 12]: 6.8 ± 0.5 min
Time spent in chambers, Paired [1, 13]: 7.6 ± 0.6 min
Time spent in chambers, Unpaired [1, 13]: 7.4 ± 0.6 min
Time spent in chambers, Paired [1, 14]: 7.9 ± 0.8 min
Time spent in chambers, Unpaired [1, 14]: 7.1 ± 0.8 min
Time spent in chambers, Paired [1, 15]: 7.8 ± 0.6 min
Time spent in chambers, Unpaired [1, 15]: 7.2 ± 0.6 min
Time spent in chambers, Paired [1, 16]: 7.6 ± 0.7 min
Time spent in chambers, Unpaired [1, 16]: 7.2 ± 0.7 min
Time spent in chambers, Paired [1, 17]: 7.2 ± 0.4 min
Time spent in chambers, Unpaired [1, 17]: 7.8 ± 0.4 min
Time spent in chambers, Paired [1, 18]: 10.6 ± 0.6^3 min
Time spent in chambers, Unpaired [1, 18]: 4.4 ± 0.9 min
Time spent in chambers, Paired [1, 19]: 8.1 ± 0.7 min
Time spent in chambers, Unpaired [1, 19]: 6.9 ± 0.6 min
Time spent in chambers, Paired [1, 20]: 7.9 ± 0.3 min
Time spent in chambers, Unpaired [1, 20]: 7.1 ± 0.3 min
Time spent in chambers, Paired [1, 21]: 7.9 ± 0.5 min
Time spent in chambers, Unpaired [1, 21]: 7.1 ± 0.6 min
Time spent in chambers, Paired [1, 22]: 7.2 ± 0.3 min
Time spent in chambers, Unpaired [1, 22]: 7.8 ± 0.3 min
Time spent in chambers, Paired [1, 23]: 7.7 ± 0.2 min
Time spent in chambers, Unpaired [1, 23]: 7.3 ± 1.1 min
Time spent in chambers, Paired [1, 24]: 7.3 ± 0.4 min
Time spent in chambers, Unpaired [1, 24]: 7.7 ± 0.3 min
Time spent in chambers, Paired ([2]; GVG 150 mg/kg ip / Food): 9.4 ± 0.4 min
Time spent in chambers, Unpaired ([2]; GVG 150 mg/kg ip / Food): 5.6 ± 0.5 min
Time spent in chambers, Paired ([2]; GVG 300 mg/kg ip / Food): 9.0 ± 0.5 min
Time spent in chambers, Unpaired ([2]; GVG 300 mg/kg ip / Food): 6.0 ± 0.5 min
CPP response to food ([2]; GVG 150 and 300 mg/kg): did not alter the CPP response to food
Stereotypies on Day 15 ([3]; 150 mg/kg i.p. of GVG 2 hrs. before, cocaine 15 mg/kg i.p. rechallenge after sensitizing regimen): 2.3 ± 0.6
expression of cocaine-induced sensitization ([3]; GVG 150 mg/kg i.p. 2.5 hours prior to the cocaine challenge): abolished the expression of cocaine-induced sensitization
Stereotypy score on Day 1 ([3]; cocaine 15 mg/kg i.p., baseline of the group later given GVG (no GVG on Day 1)): 2.9 ± 0.4
inhibition at 300 mg/kg [4]: ~50%
inhibition at 100 mg/kg ([4]; read-out: inhibition of alcohol's ability to increase nucleus accumbens dopamine): ~40%
temporal aspects of the response to cocaine/heroin ([5]; GVG 300 mg/kg i.p.): did not effect the temporal aspects of the response
increase in NAc DA after cocaine/heroin challenge ([5]; GVG 300 mg/kg i.p. 2.5 hours prior to challenge, 180 minutes following challenge): approximately 500%
synergistic effects of the combined drug challenge (absolute magnitude) ([5]; GVG 300 mg/kg i.p. 2.5 hours prior to cocaine/heroin): completely abolished the synergistic effects
decrease in brain stimulation reward thresholds produced by 2.5 and 5 mg/kg i.p. cocaine ([6]; GVG 400 mg/kg): significantly antagonized
brain stimulation reward thresholds ([6]; GVG alone): dose-dependent increase
excretion [7]: excreted primarily unchanged in the urine; also recorded: excreted primarily in the unchanged form by the kidneys
interaction with the hepatic microsomal enzymes [7]: does not interact with the hepatic microsomal enzymes
withdrawal signs or symptoms ([8]; animals withdrawn from chronic GVG treatment): do not exhibit withdrawal signs or symptoms
self-administration of GVG ([8]; rhesus monkeys): not self-administered
